The test system of this assay is 292921-168-R-J2-PDC complex spheroid viability. Description: Anticancer human tumor 292921-168-R-J2-PDC patient-derived pancreatic carcinoma cell line growth inhibition. The settings on record: for viability, T/C: stronger effect = lower value. From the text: Multicellular complex tumor spheroid response to LSD1 Inhibitor Iadademstat in combination with a variety of drugs and investigational agents in selected tumor cell lines
The current study was undertaken to assess response to LSD1 inhibitors in combination with standard-of-care drugs and investigational agents in solid tumor complex spheroid models as well as in the K-562 leukemia. Complex spheroids include a stromal component modeled by human endothelial cells (HUVEC) and fibroblasts modeled by human mesenchymal stem cells (MSCs). The concentration ranges selected for each drug and investigational agent were based upon clinically achievable concentrations if the clinical Cmax of the agent was known.
Compounds. The drugs and investigational agents used in this study are listed on Table 1. All of the agents used, including staurosporine (NSC755774) and gemcitabine (NSC613327), were obtained from the Developmental Therapeutics Program, NCI. FDA-approved anticancer drugs are available from the NCI at http://dtp.nci.nih.gov/branches/dscb/oncology_drugset_explanation.html. Drugs and investigational agents were >95% pure by proton nuclear magnetic resonance (NMR) and liquid chromatography/mass spectrometry (LC/MS). Stock solutions were prepared at 400x in DMSO, stored at -70 degrees C, and diluted in fresh medium prior to their use. The final concentration of DMSO in cell culture wells never exceeded 0.25% (v/v). The FDA-approved anticancer drug set is available from the Developmental Therapeutics Program at https://dtp.cancer.gov/organization/dscb/obtaining/available_plates.htm. All drugs and investigational agents were tested over a range starting from a high concentration at or near the clinical Cmax and decreasing in half-log increments. If the clinical Cmax for an agent had not been determined, the highest concentration tested was 10 microM.
Cell Lines. The patient-derived cancer cell (PDC) lines: 292921-168-R-J2-PDC, K24384-001-R-PDC, and 521955-158-R2-J5-PDC pancreatic carcinomas, 556581-035-R-J1 ovarian carcinoma, 324938-238-R-J1-PDC, 855422-203-R-J1-PDC and 883617-216-R-J1-PDC urothelial bladder carcinomas, 743489-274-T-PDC renal cell carcinoma, 138582-R-J1 Merkel cell tumor, K60290-347-R-J1 and K57222-313-R-J1-PDC glioblastomas, 653999-131-R-J2-PDC, LG0703-F948-PDC, and 349418-098-R-PDC non-small cell lung carcinomas, 885512-296-R-J2-PDC, 171881-019-R-J1-PDC breast carcinomas and 186277-243-T-J2-PDC and 233499-124-R-J2-PDC colon carcinomas were obtained from the NCI Patient-Derived Models Repository (PDMR, https://pdmr.cancer.gov). The established cell lines NCI/ADR-RES (RRID:CVCL_14520 and OVCAR-5 (RRID:CVCL_1628) ovarian carcinomas, 786-O (RRID:CVCL_1051) and A498 (RRID:CVCL_A498) renal cell carcinoma, NCI-H211 (ATCC, cat. CRL-5824; RRID:CVCL_1529), NCI-H196 (ATCC, cat. CRL-5823, RRID:CVCL_1509), SW 1271 (ATCC, cat. CRL-2177, RRID:CVCL_1716) and NCI-H1876 (ATCC, cat. CRL-5902, RRID:CVCL_1503) small cell lung carcinomas, MDA-MB-231 (RRID:CVCL_0062) and MDA-MB-468 (RRID:CVCL_0419)breast carcinomas (10-12). Pooled donor human umbilical vein endothelial cells (HUVEC, Lonza, cat. CC-2519) and human mesenchymal stem cells (hMSC, Lonza, cat. PT-2501) were purchased from Lonza (Walkersville, MD).
Cell Culture. All cells were maintained in an incubator at 37 degrees C and 5% CO2 with 95% humidity. The PDC lines were cultured according to standard operating procedures established by the NCI PDMR (https://pdmr.cancer.gov). Briefly all PDCs were thawed and cultured in Matrigel-coated flasks prepared with a working solution of 1X Ham's F-12 nutrient mix, without supplementation (Invitrogen, Waltham, MA, cat. 11765054), 100 U/mL penicillin-streptomycin (Invitrogen, cat. 15140122), and 2.5% Matrigel (Corning Inc., Corning, NY, cat. 354248) for the first three passages. […]

As a reminder, the viability, T/C is the result in the treated group divided by that in the control group, in per cent. As usually defined, the IC50 is the concentration needed to halve the response being measured.

Where “and” joins values, the source holds several entries; their conditions need not be identical. Equal entries are not always repeated.
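Note: seven day compound exposure before luminescent viability read.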

`CC(C)c1c(-c2ccccc2)nc2c(C#N)c[nH]n2c1=O`: the viability, T/C is, setting by setting: (compound 0.0316 µM) 100% and 101%; (compound 0.1 µM) 97.6% and 101%; (compound 0.316 µM) 102% and 93.6%; (compound 1 µM) 106% and 98.2%; (compound 3.16 µM) 102% and 105%; (compound 10 µM) 65.2% and 70.4%. In addition, the IC50 (curve of compound) is greater than 10 µM.

`CC1COCCN1c1cc(C2(S(C)(=N)=O)CC2)nc(-c2ccnc3[nH]ccc23)n1` (stereo unspecified): the viability, T/C runs as follows: (compound 0.0316 µM) 104% and 96.3%; (compound 0.1 µM) 102% and 99.3%; (compound 0.316 µM) 73.6% and 77.7%; (compound 1 µM) 31.6% and 35.1%; (compound 3.16 µM) 13.4% and 16.8%; (compound 10 µM) 12.6% and 11.3%. In addition, the IC50 (curve of compound) was 0.602 µM and 0.673 µM.

For the compound `COc1ccc([C@@H](O)c2cc(-c3ncnc4cc(N5CCOCC5)ccc34)c(F)cc2Cl)nn1`, the viability, T/C is, setting by setting: (compound 0.0316 µM) 101% and 104%; (compound 0.1 µM) 95.7% and 82.2%; (compound 0.316 µM) 61.2% and 71.4%; (compound 1 µM) 37.6% and 42.1%; (compound 3.16 µM) 24.7% and 24.6%; (compound 10 µM) 11.6% and 13.1%. The IC50 (curve of compound) is 0.59 µM and 0.738 µM.

On to `NC1CC1c1ccc(-c2cccc(O)c2)cc1` (stereo unspecified), for which the viability, T/C by setting is: (compound 0.1 µM) 80.2%; (compound 0.316 µM) 71.4% [middle of 24 runs]; (compound 1 µM) 67.6% [middle of 25 runs]; (compound 3.16 µM) 64.6% [middle of 25 runs]; (compound 10 µM) 54.7% [middle of 25 runs].

As for `NC1CCC(NC2CC2c2ccccc2)CC1` (stereo unspecified), the viability, T/C runs as follows: (compound 0.1 µM) 65.7% [middle of 25 runs]; (compound 0.316 µM) 56.6% and 63.5%; (compound 1 µM) 58% [middle of 25 runs]; (compound 3.16 µM) 57.4% [middle of 25 runs]; (compound 10 µM) 54.2% [middle of 23 runs].

Turning to `Nc1ncn(C2CC(O)C(CO)O2)c(=O)n1` (stereo unspecified) + NC1CC1c1ccc(-c2cccc(O)c2)cc1, the half-inhibitory concentration (IC50) runs as follows: (curve of first compound, second compound 0.1 µM) 0.646 µM; (curve of first compound, second compound 0.316 µM) 0.33 µM; (curve of first compound, second compound 1 µM) 0.104 µM; (curve of first compound, second compound 3.16 µM) 0.171 µM; (curve of first compound, second compound 10 µM) 0.0908 µM. Moreover, the viability, T/C is, setting by setting: (second compound 0.1 µM, first compound 0.00316 µM) 79.1%; (second compound 0.1 µM, first compound 0.01 µM) 76.2%; (second compound 0.1 µM, first compound 0.0316 µM) 71.9%; (second compound 0.1 µM, first compound 0.1 µM) 66.9%; (second compound 0.1 µM, first compound 0.316 µM) 55%; (second compound 0.1 µM, first compound 1 µM) 46.5%. The viability, T/C runs as follows: (second compound 0.316 µM, first compound 0.00316 µM) 74.7%; (second compound 0.316 µM, first compound 0.01 µM) 75%; (second compound 0.316 µM, first compound 0.0316 µM) 65.2%; (second compound 0.316 µM, first compound 0.1 µM) 60.4%; (second compound 0.316 µM, first compound 0.316 µM) 49.6%; (second compound 0.316 µM, first compound 1 µM) 44.4%. In addition, the viability, T/C by setting is: (second compound 1 µM, first compound 0.00316 µM) 64.8%; (second compound 1 µM, first compound 0.01 µM) 52.3%; (second compound 1 µM, first compound 0.0316 µM) 53.4%; (second compound 1 µM, first compound 0.1 µM) 53.2%; (second compound 1 µM, first compound 0.316 µM) 48%; (second compound 1 µM, first compound 1 µM) 39.1%. The viability, T/C is 65.2% (second compound 3.16 µM, first compound 0.00316 µM); 63.5% (second compound 3.16 µM, first compound 0.01 µM); 61.4% (second compound 3.16 µM, first compound 0.0316 µM); 54% (second compound 3.16 µM, first compound 0.1 µM); 45.2% (second compound 3.16 µM, first compound 0.316 µM); 38.4% (second compound 3.16 µM, first compound 1 µM). Also, the viability, T/C is, setting by setting: (second compound 10 µM, first compound 0.00316 µM) 55%; (second compound 10 µM, first compound 0.01 µM) 56.3%; (second compound 10 µM, first compound 0.0316 µM) 55.3%; (second compound 10 µM, first compound 0.1 µM) 47.2%; (second compound 10 µM, first compound 0.316 µM) 45.4%; (second compound 10 µM, first compound 1 µM) 39.8%.
